Test results published in PubChem BioAssay AID1745844 (Carcinogenic Potency Database (CPDB), 2022).
Activity calls are given as the source filed them. The rule behind the calls is not given here.

Tested on: rodent lifetime carcinogenesis bioassay, tumor incidence TD50
Assay: carcinogenic potency in animals, long-term in vivo studies, CPDB compilation (AID 1745844)

O=NN1CCCC1c1ccc[n+]([O-])c1 (stereo not drawn)
TD50 (hamster, strain Syrian Golden, females, in drinking water, site: liver, lesion: angiosarcoma, dosed 31 weeks, study length 96 weeks): 39 mg/kg/day (inactive) | TD50 (rat, strain Fischer 344, females, in drinking water, site: esophagus, lesion: several types, types named in the paper, dosed 36 weeks, study length 104 weeks): 5.65 mg/kg/day | TD50 (rat, strain Fischer 344, females, in drinking water, site: nasal cavity, lesion: several types, types named in the paper, dosed 36 weeks, study length 104 weeks): 1.86 mg/kg/day | TD50 (rat, strain Fischer 344, males, in drinking water, site: esophagus, lesion: papilloma, dosed 36 weeks, study length 104 weeks): 2.64 mg/kg/day | TD50 (rat, strain Fischer 344, males, in drinking water, site: esophagus, lesion: several types, types named in the paper, dosed 36 weeks, study length 104 weeks): 1.63 mg/kg/day | TD50 (rat, strain Fischer 344, males, in drinking water, site: nasal cavity, lesion: malignant tumor, dosed 36 weeks, study length 104 weeks): 1.63 mg/kg/day | TD50 (rat, strain Fischer 344, males, in drinking water, site: nasal cavity, lesion: papilloma, dosed 36 weeks, study length 104 weeks): 2.64 mg/kg/day | TD50 (rat, strain Fischer 344, males, in drinking water, site: nasal cavity, lesion: several types, types named in the paper, dosed 36 weeks, study length 104 weeks): 0.573 mg/kg/day

CS(=O)(=O)OCCCCOS(C)(=O)=O
TD50 (rat, strain BR 46, males, by gavage, site: any site (literature study), lesion: benign tumor, dosed 52 weeks, study length 104 weeks): 0.642 mg/kg/day | TD50 (rat, strain BR 46, males, by gavage, site: any site (literature study), lesion: malignant tumor, dosed 52 weeks, study length 104 weeks): 0.117 mg/kg/day | TD50 (rat, strain BR 46, males, by gavage, site: any site (literature study), lesion: several types, types named in the paper, dosed 52 weeks, study length 104 weeks): 0.0931 mg/kg/day

COc1cc(NC(=O)C(N=Nc2ccc(-c3ccc(N=NC(C(C)=O)C(=O)Nc4cc(OC)c(Cl)cc4OC)c(Cl)c3)cc2Cl)C(C)=O)c(OC)cc1Cl (stereo not drawn)
carcinogen call (mouse, strain NMRI, both sexes, in feed, site: any site (literature study), lesion: one or several types, types not named, dosed 104 weeks, study length 104 weeks): negative (inactive) | TD50 (rat, strain Sprague-Dawley, both sexes, in feed, site: any site (literature study), lesion: one or several types, types not named, dosed 104 weeks, study length 104 weeks): 3560 mg/kg/day (inactive)

CC(I)C1OCC(CO)O1 (stereo not drawn)
TD50 (mouse, strain B6C3F1, females, by gavage, site: Harderian gland + pituitary gland, anterior, lesion: adenoma, NOS + carcinoma, NOS, dosed 103 weeks, study length 105 weeks): 92.4 mg/kg/day | TD50 (mouse, strain B6C3F1, females, by gavage, site: Harderian gland, lesion: adenoma, NOS + carcinoma, NOS, dosed 103 weeks, study length 105 weeks): 263 mg/kg/day | TD50 (mouse, strain B6C3F1, females, by gavage, site: any site (literature study), lesion: several types, types named in the paper, dosed 103 weeks, study length 105 weeks): 172 mg/kg/day | TD50 (mouse, strain B6C3F1, females, by gavage, site: forestomach, lesion: squamous-cell papilloma, dosed 103 weeks, study length 105 weeks): 608 mg/kg/day | TD50 (mouse, strain B6C3F1, females, by gavage, site: liver, lesion: hepatocellular adenoma + hepatocellular carcinoma + neoplastic nodule, dosed 103 weeks, study length 105 weeks): 373 mg/kg/day | TD50 (mouse, strain B6C3F1, females, by gavage, site: liver, lesion: hepatocellular adenoma + hepatocellular carcinoma, dosed 103 weeks, study length 105 weeks): 373 mg/kg/day | TD50 (mouse, strain B6C3F1, females, by gavage, site: liver, lesion: hepatocellular adenoma, dosed 103 weeks, study length 105 weeks): 471 mg/kg/day | TD50 (mouse, strain B6C3F1, females, by gavage, site: lung, lesion: alveolar/bronchiolar adenoma + alveolar/bronchiolar carcinoma, dosed 103 weeks, study length 105 weeks): 2740 mg/kg/day | TD50 (mouse, strain B6C3F1, females, by gavage, site: pituitary gland, anterior, lesion: adenoma, NOS, dosed 103 weeks, study length 105 weeks): 138 mg/kg/day | carcinogen call (mouse, strain B6C3F1, males, by gavage, site: any site (literature study), lesion: several types, types named in the paper, dosed 103 weeks, study length 104 weeks): negative (inactive) | TD50 (mouse, strain B6C3F1, males, by gavage, site: liver, lesion: hepatocellular adenoma + hepatocellular carcinoma + neoplastic nodule, dosed 103 weeks, study length 104 weeks): 1100 mg/kg/day | TD50 (mouse, strain B6C3F1, males, by gavage, site: lung, lesion: alveolar/bronchiolar adenoma + alveolar/bronchiolar carcinoma, dosed 103 weeks, study length 104 weeks): 2410 mg/kg/day | TD50 (rat, strain Fischer 344, females, by gavage, site: any site (literature study), lesion: several types, types named in the paper, dosed 103 weeks, study length 104 weeks): 214 mg/kg/day (inactive) | TD50 (rat, strain Fischer 344, females, by gavage, site: liver, lesion: hepatocellular adenoma + hepatocellular carcinoma + neoplastic nodule, dosed 103 weeks, study length 104 weeks): 2490 mg/kg/day | TD50 (rat, strain Fischer 344, males, by gavage, site: any site (literature study), lesion: several types, types named in the paper, dosed 103 weeks, study length 104 weeks): 52.1 mg/kg/day | TD50 (rat, strain Fischer 344, males, by gavage, site: liver, lesion: hepatocellular adenoma + hepatocellular carcinoma + neoplastic nodule, dosed 103 weeks, study length 104 weeks): 571 mg/kg/day | TD50 (rat, strain Fischer 344, males, by gavage, site: multiple organs + thyroid gland, lesion: mononuclear-cell leukemia + follicular-cell carcinoma, dosed 103 weeks, study length 104 weeks): 84.1 mg/kg/day | TD50 (rat, strain Fischer 344, males, by gavage, site: multiple organs, lesion: mononuclear-cell leukemia, dosed 103 weeks, study length 104 weeks): 101 mg/kg/day | TD50 (rat, strain Fischer 344, males, by gavage, site: nasal cavity, lesion: adenoma, NOS, dosed 103 weeks, study length 104 weeks): 1210 mg/kg/day | TD50 (rat, strain Fischer 344, males, by gavage, site: testis, lesion: interstitial-cell tumor, dosed 103 weeks, study length 104 weeks): 40.6 mg/kg/day | TD50 (rat, strain Fischer 344, males, by gavage, site: thyroid gland, lesion: follicular-cell carcinoma, dosed 103 weeks, study length 104 weeks): 280 mg/kg/day

CC[C@@H]1NC(=O)[C@@H]2[C@H](Cl)[C@H](Cl)CN2C(=O)[C@H](CO)NC(=O)C[C@H](c2ccccc2)NC(=O)[C@H](CO)NC1=O
TD50 (mouse, strain ddNi, males, in feed, site: liver, lesion: hepatoma, dosed 160 weeks, study length 160 weeks): 99.5 mg/kg/day | TD50 (mouse, strain ddNi, males, in feed, site: liver, lesion: liver-cell adenoma, dosed 160 weeks, study length 160 weeks): 48.6 mg/kg/day | TD50 (mouse, strain ddNi, males, in feed, site: liver, lesion: liver-cell carcinoma, dosed 160 weeks, study length 160 weeks): 98.9 mg/kg/day | TD50 (mouse, strain ddNi, males, in feed, site: liver, lesion: several types, types named in the paper, dosed 160 weeks, study length 160 weeks): 23.6 mg/kg/day
